Experiments:
[1] = test system: patient-derived organoids (PDOs) from a lung cancer patient's metastatic tumor; assay: Patient-derived organoid viability (CellTiter Glo); assay type: cell-based, human; parameters: viability of PDO: dose or concentration left out as unconfirmed; conditions: 72 h
Protocol: FIG. 1A is a bar graph showing the IC50 values of AGB against indicated cell lines. Cells were treated with AGB at various concentrations for 48 h and processed for MTT assay. The IC50 values were half maximal inhibitory concentration that determined by the fitting curve using the equation from GraphPad Prism 8. FIG. 1B is a bar graph showing the inhibition of colony formation on NCI-H460 cells by AGB. Cells were treated with indicated concentrations of AGB for 8 h. Medium with AGB was then aspirated and cells were re-seeded into a new 12-well cell culture plate. After 14 days, cells were fixed by ethanol followed by staining using crystal violet. Colony numbers were counted and normalized to vehicle control group. Colonies with more than 50 cells were considered. **, p<0.01; ***, p<0.001. […] The numbers of formed tumorsphere were calculated and normalized to the control group of primary passage. […] FIG. 1E is a graph showing the cell viability of CSCs determined by MTT assay. The absorbance of each well was normalized to control wells and data were shown as percentage of cell viabilities. […]
To better simulate the physiological structure and function of in situ tissue, the effect of AGB on the growth of patient-derived organoids (PDOs) isolated from a lung cancer patient's metastatic tumor was evaluated.

[2] = test system: CCD-19Lu (human lung fibroblast normal cell); assay: MTT cell viability assay, normal cell; assay type: cell-based; conditions: 48-h treatment
Protocol: SUNE1 (nasopharyngeal carcinoma), AGS (gastric adenocarcinoma), HeLa (cervix adenocarcinoma), HepG2 (hepatocellular carcinoma), U-87 MG (human glioblastoma cell), U2OS (osteosarcoma), MCF-7 (breast adenocarcinoma), MDA-MB-231 (breast adenocarcinoma), HCT116 (colorectal carcinoma), SW480 (colorectal adenocarcinoma), NCI-H460 (large cell lung carcinoma), NCI-H1650 (adenocarcinoma lung carcinoma), HCC827 (adenocarcinoma lung carcinoma), A549 (lung carcinoma), and CCD-19Lu (human lung fibroblast normal cell) were all obtained from American Type Culture Collection (ATCC, Manassas, VA, USA). Minimum Essential Media (MEM, Gibco®, ThermoFisher Scientific), Dulbecco's Modified Eagle Medium (DMEM, Gibco®, ThermoFisher Scientific), and RPMI-1640 Medium (Gibco®, ThermoFisher Scientific) supplemented with 10% Fetal Bovine Serum (Gibco®, ThermoFisher Scientific), and 100 U/mL penicillin-streptomycin (Gibco™, ThermoFisher Scientific) were used for cell culture. Cells were placed into an incubator with 5% CO2 that temperature was set at 37° C. […]
The cell viability assay was performed by a typical MTT assay. […] The formed formazan was then dissolved with SDS solution (10% SDS in 10 mM HCl) and followed the determination of absorbance at 590 nm by a microplate reader. The change in cell viability was then calculated for each drug concentration, then normalized to control. […]

## CCCC(=O)c1c(O)c(Cc2c(O)c(Cc3c(O)c(C)c(OC)c(C(=O)CCC)c3O)c(O)c(C(=O)[C@@H](C)CC)c2O)c(O)c(C)c1OC [AGB, Agrimol B]
[1]; AGB, concentration dependent
  viability of PDO: Significant inhibition of viability
[1]; PDO
  maximal viability loss: over 99%
[2]
  IC50: 31.1 µM

Source: patent US20250162973A1, “METHODS OF SYNTHESIS AND USES OF AGRIMOL COMPOUNDS” (Versitech Limited, priority 2022, published 2025)
